Assays:
[1] = tested on: primary rat Schwann cells; assay: Differentiation of primary rat Schwann cells; format: cell-based; settings: Roflumilast 5 or 10 μM, BPN14770 1 or 5 μM
Description: FIG. 16: Inhibition of PDE4 by roflumilast and PDE4D by BPN induces differentiation of primary rat schwann cells. Primary rat schwann cells were isolated from p3 Wistar rats. Primary rat schwann cells were cultured onto an aligned network of electrospinned fibers and stimulated with vehicle (0.1% DMSO), the PDE4 inhibitor Roflumilast (5 μM or 10 μM) or the PDE4D inhibitor BPN (1 μM or 5 μM), both dissolved in 0.1% DMSO. Cells were fixated (IHC) or lysated (WB and qPCR) at day 14.
A: Primary rat schwann cells were stained for MBP (red) and MAG (green), both markers for Schwann cells differentiation (100.000 cells).
B: MBP and β-actin protein expression of primary rat schwann cells was analyzed using western blot (500.000 cells)
C: qPCR was conducted to evaluate changes in mRNA expression of MBP, PLP, MAG and SOX10. The expression of all these genes was increased upon PDE4 or PDE4D inhibition.
Primary rat Schwann cells were isolated from p3 Wistar rats. […] MBP and β-actin protein expression was analyzed using western blot analysis on primary rat Schwann cells (500.000 cells). […] Data were analyzed using a one-way ANOVA with Dunnett's multiple comparison test (compared to control); *p<0.05, **p<0.01, ***p<0.001. qPCR was conducted to evaluate changes in mRNA expression of MBP, PLP, MAG and SOX10.

[2] = Emetic side-effects at the remyelination-inducing dose; format: in vivo

O=C(Nc1c(Cl)cncc1Cl)c1ccc(OC(F)F)c(OCC2CC2)c1 [roflumilast]
MBP and MAG protein expression (IHC) ([1]; day 14): increases dose-dependently | mRNA expression of MBP, MAG, PLP and SOX10 (qPCR) ([1]; vs control conditions): increased | Emetic side-effects [2]: displayed emetic side-effects

From patent US20210145838A1, “SELECTIVE PDE4D INHIBITORS AGAINST DEMYELINATING DISEASES” (Universiteit Hasselt, priority 2018, published 2021)
